# Measurements as given in US7138361B2, “Herbicidal heterocycles” (E. I. du Pont de Nemours and Company, priority 2000, dated 2006).
# What was measured:
# Type in all cases: in vivo
# [1] = system: Surinam grass (Brachiaria decumbens); assay: Test C postemergence
# Method in brief: (§1)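 Each compound was dissolved in a non-phytotoxic solvent system containing a surfactant and sprayed either on freshly planted seeds (preemergence) or on young plants, 2 to 18 cm high (postemergence). Ratings after 12 to 14 greenhouse days ran from 0, no effect, to 100, complete control.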
# [2] = system: yellow nutsedge (Cyperus esculentus); assay: Test C postemergence
# Method in brief: as §1
# [3] = system: morningglory (Ipomoea hederacea); assay: Test C postemergence
# Method in brief: as §1
# [4] = system: goosegrass (Eleusine indica); assay: Test C postemergence
# Method in brief: as §1
# [5] = system: bermudagrass (Cynodon dactylon); assay: Test C postemergence
# Method in brief: as §1
# corn (Zea mays) = assay: Test C postemergence
# Method in brief: as §1
# [6] = system: giant foxtail (Setaria faberii); assay: Test C postemergence
# Method in brief: as §1
# [7] = system: lambsquarters (Chenopodium album); assay: Test C postemergence
# Method in brief: as §1
# [8] = system: chickweed (Stellaria media); assay: Test C postemergence
# Method in brief: as §1
# [9] = system: velvetleaf (Abutilon theophrasti); assay: Test C postemergence
# Method in brief: as §1
# Sunflower [10] = assay: Test C preemergence; settings: visual evaluation after 12 to 14 days
# rice (Oryza saliva) = assay: Test C flooded paddy test; settings: for Rice plant response rating: Flooded Paddy, scale 0 to 100, 0 no effect, 100 complete control; for Plant response rating, Rice: flooded paddy test, scale 0 to 100 (0 no effect, 100 complete control)
# Method in brief: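 Greenhouse-maintained for 12 to 14 days after treatment, the paddy plants (2-leaf stage at application) were scored visually against controls. A score of 0 denotes no effect and a score of 100 denotes complete control.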
# Sunflower [11] = assay: Test C preemergence; settings: scale 0 to 100
# [12] = Rate 125 g/ha, scale 0 to 100, 0 no effect, 100 complete control
# [13] = Rate 250 g/ha, scale 0 to 100 (0 no effect, 100 complete control)
# [14] = Rate 500 g/ha, scale 0 to 100 (0 no effect, 100 complete control)
# [15] = Rate 62 g/ha, scale 0 to 100, 0 no effect, 100 complete control
structure (smiles),measurement,setting,value
CCCOc1cc(N2CCC(n3ccc(C(C)(C)C)n3)C2=O)ccc1C (stereo not drawn) [Compound 107],"Plant response rating, Surinam grass","[1]; Rate 62 g/ha, scale 0 to 100",0
same,"Plant response rating, Surinam grass",[1]; [12],0
same,"Plant response rating, Surinam grass",[1]; [13],0
same,"Plant response rating, Surinam grass",[1]; [14],0
same,"Plant response rating, Nutsedge","[2]; Rate 62 g/ha, scale 0 to 100",0
same,"Plant response rating, Nutsedge",[2]; [13],0
same,"Plant response rating, Nutsedge",[2]; [14],0
same,"Plant response rating, Morningglory","[3]; Rate 62 g/ha, scale 0 to 100",60
same,"Plant response rating, Morningglory",[3]; [13],100
same,"Plant response rating, Morningglory",[3]; [14],100
same,"Plant response rating, Goosegrass","[4]; Rate 62 g/ha, scale 0 to 100",0
same,"Plant response rating, Goosegrass",[4]; [13],0
same,"Plant response rating, Goosegrass",[4]; [14],0
same,"Plant response rating, Bermudagrass","[5]; Rate 62 g/ha, scale 0 to 100",0
same,"Plant response rating, Bermudagrass",[5]; [12],0
same,"Plant response rating, Bermudagrass",[5]; [13],0
same,"Plant response rating, Bermudagrass",[5]; [14],0
same,"Plant response rating, Corn","corn (Zea mays); Rate 62 g/ha, scale 0 to 100",0
same,"Plant response rating, Corn",corn (Zea mays); [13],0
same,"Plant response rating, Corn",corn (Zea mays); [14],0
same,"Plant response rating, Corn",corn (Zea mays); scale 0 to 100,0
same,"Plant response rating, Foxtail, Giant","[6]; Rate 62 g/ha, scale 0 to 100",0
same,"Plant response rating, Foxtail, Giant",[6]; [13],0
same,"Plant response rating, Foxtail, Giant",[6]; [14],0
same,"Plant response rating, Lambsquarters","[7]; Rate 62 g/ha, scale 0 to 100",50
same,"Plant response rating, Lambsquarters",[7]; [13],100
same,"Plant response rating, Lambsquarters",[7]; [14],100
same,"Plant response rating, Chickweed","[8]; Rate 62 g/ha, scale 0 to 100",50
same,"Plant response rating, Chickweed",[8]; [12],100
same,"Plant response rating, Chickweed",[8]; [13],100
same,"Plant response rating, Chickweed",[8]; [14],100
same,"Plant response rating, Velvetleaf","[9]; Rate 62 g/ha, scale 0 to 100",30
same,"Plant response rating, Velvetleaf",[9]; [13],50
same,"Plant response rating, Velvetleaf",[9]; [14],80
same,"Plant response rating, Velvetleaf",[9]; scale 0 to 100,40
same,"Plant response rating (0 to 100), Sunflower",Sunflower [10]; Rate 500 g/ha,70
same,Rice plant response rating,rice (Oryza saliva); Rate 250 g/ha,0
same,Rice plant response rating,rice (Oryza saliva); Rate 500 g/ha,20
same,"Plant response rating, Rice",rice (Oryza saliva); Rate 62 g/ha,0
same,"Plant response rating, Rice",rice (Oryza saliva); Rate 125 g/ha,0
same,"Plant response rating, Sunflower",Sunflower [11]; Rate 62 g/ha,0
COc1cc(N2CCC(n3ccc(C(C)C)n3)C2=O)ccc1C (stereo not drawn) [Compound 85],"Plant response rating, Surinam grass","[1]; Rate 62 g/ha, scale 0 to 100",0
same,"Plant response rating, Surinam grass",[1]; [12],20
same,"Plant response rating, Surinam grass",[1]; [13],20
same,"Plant response rating, Surinam grass",[1]; [14],60
same,"Plant response rating, Nutsedge","[2]; Rate 62 g/ha, scale 0 to 100",10
same,"Plant response rating, Nutsedge",[2]; [14],90
same,"Plant response rating, Morningglory","[3]; Rate 62 g/ha, scale 0 to 100",60
same,"Plant response rating, Morningglory",[3]; [12],80
same,"Plant response rating, Morningglory",[3]; [13],80
same,"Plant response rating, Morningglory",[3]; [14],90
same,"Plant response rating, Goosegrass","[4]; Rate 62 g/ha, scale 0 to 100",10
same,"Plant response rating, Goosegrass",[4]; [12],10
same,"Plant response rating, Goosegrass",[4]; [13],20
same,"Plant response rating, Goosegrass",[4]; [14],60
same,"Plant response rating, Bermudagrass","[5]; Rate 62 g/ha, scale 0 to 100",0
same,"Plant response rating, Bermudagrass",[5]; [12],0
same,"Plant response rating, Bermudagrass",[5]; [13],80
same,"Plant response rating, Bermudagrass",[5]; [14],90
same,"Plant response rating, Corn","corn (Zea mays); Rate 62 g/ha, scale 0 to 100",50
same,"Plant response rating, Corn",corn (Zea mays); [12],50
same,"Plant response rating, Corn",corn (Zea mays); [13],50
same,"Plant response rating, Corn",corn (Zea mays); [14],60
same,"Plant response rating, Foxtail, Giant","[6]; Rate 62 g/ha, scale 0 to 100",20
same,"Plant response rating, Foxtail, Giant",[6]; [12],20
same,"Plant response rating, Foxtail, Giant",[6]; [13],40
same,"Plant response rating, Foxtail, Giant",[6]; [14],70
same,"Plant response rating, Lambsquarters","[7]; Rate 62 g/ha, scale 0 to 100",70
same,"Plant response rating, Lambsquarters",[7]; [12],90
same,"Plant response rating, Lambsquarters",[7]; [13],100
same,"Plant response rating, Lambsquarters",[7]; [14],100
same,"Plant response rating, Chickweed","[8]; Rate 62 g/ha, scale 0 to 100",20
same,"Plant response rating, Chickweed",[8]; [12],70
same,"Plant response rating, Chickweed",[8]; [13],100
same,"Plant response rating, Chickweed",[8]; [14],100
same,"Plant response rating, Velvetleaf","[9]; Rate 62 g/ha, scale 0 to 100",40
same,"Plant response rating, Velvetleaf",[9]; [12],40
same,"Plant response rating, Velvetleaf",[9]; [13],40
same,"Plant response rating, Velvetleaf",[9]; [14],40
same,"Plant response rating (0 to 100), Sunflower",Sunflower [10]; Rate 500 g/ha,70
same,Rice plant response rating,rice (Oryza saliva); Rate 250 g/ha,80
same,Rice plant response rating,rice (Oryza saliva); Rate 500 g/ha,100
same,"Plant response rating, Rice",rice (Oryza saliva); Rate 62 g/ha,30
same,"Plant response rating, Rice",rice (Oryza saliva); Rate 125 g/ha,60
same,"Plant response rating, Sunflower",Sunflower [11]; Rate 62 g/ha,40
CC(C)(C)c1ccn(C2SCN(c3cccc(OC(F)F)c3)C2=O)n1 (stereo not drawn) [Compound 36],"Plant response rating, Surinam grass","[1]; Rate 31 g/ha, scale 0 to 100",0
same,"Plant response rating, Surinam grass",[1]; [15],0
same,"Plant response rating, Surinam grass",[1]; [12],0
same,"Plant response rating, Surinam grass",[1]; [13],0
same,"Plant response rating, Nutsedge","[2]; Rate 31 g/ha, scale 0 to 100",0
same,"Plant response rating, Nutsedge",[2]; [12],0
same,"Plant response rating, Nutsedge",[2]; [13],30
same,"Plant response rating, Morningglory","[3]; Rate 31 g/ha, scale 0 to 100",0
same,"Plant response rating, Morningglory",[3]; [12],0
same,"Plant response rating, Morningglory",[3]; [13],20
same,"Plant response rating, Goosegrass","[4]; Rate 31 g/ha, scale 0 to 100",0
same,"Plant response rating, Goosegrass",[4]; [12],0
same,"Plant response rating, Goosegrass",[4]; [13],0
same,"Plant response rating, Bermudagrass","[5]; Rate 31 g/ha, scale 0 to 100",0
same,"Plant response rating, Bermudagrass",[5]; [15],0
same,"Plant response rating, Bermudagrass",[5]; [12],0
same,"Plant response rating, Bermudagrass",[5]; [13],70
same,"Plant response rating, Corn","corn (Zea mays); Rate 31 g/ha, scale 0 to 100",0
same,"Plant response rating, Corn",corn (Zea mays); [12],0
same,"Plant response rating, Corn",corn (Zea mays); [13],20
same,"Plant response rating, Foxtail, Giant","[6]; Rate 31 g/ha, scale 0 to 100",0
same,"Plant response rating, Foxtail, Giant",[6]; [12],0
same,"Plant response rating, Foxtail, Giant",[6]; [13],20
same,"Plant response rating, Lambsquarters","[7]; Rate 31 g/ha, scale 0 to 100",50
same,"Plant response rating, Lambsquarters",[7]; [12],70
same,"Plant response rating, Lambsquarters",[7]; [13],70
same,"Plant response rating, Chickweed","[8]; Rate 31 g/ha, scale 0 to 100",0
same,"Plant response rating, Chickweed",[8]; [15],0
same,"Plant response rating, Chickweed",[8]; [12],0
same,"Plant response rating, Chickweed",[8]; [13],50
same,"Plant response rating, Velvetleaf","[9]; Rate 31 g/ha, scale 0 to 100",0
same,"Plant response rating, Velvetleaf",[9]; [12],0
same,"Plant response rating, Velvetleaf",[9]; [13],30
same,"Plant response rating (0 to 100), Sunflower",Sunflower [10]; Rate 250 g/ha,30
same,Rice plant response rating,rice (Oryza saliva); Rate 250 g/ha,90
same,Rice plant response rating,rice (Oryza saliva); Rate 500 g/ha,90
same,"Plant response rating, Rice",rice (Oryza saliva); Rate 62 g/ha,30
same,"Plant response rating, Rice",rice (Oryza saliva); Rate 125 g/ha,80
same,"Plant response rating, Sunflower",Sunflower [11]; Rate 31 g/ha,0
O=C1C(n2ccc(C3CCC3)n2)SCN1c1cccc(C(F)(F)F)c1 (stereo not drawn) [Compound 37],"Plant response rating, Surinam grass","[1]; Rate 31 g/ha, scale 0 to 100",0
same,"Plant response rating, Surinam grass",[1]; [12],0
same,"Plant response rating, Surinam grass",[1]; [13],0
same,"Plant response rating, Nutsedge","[2]; Rate 31 g/ha, scale 0 to 100",0
same,"Plant response rating, Nutsedge",[2]; [12],0
same,"Plant response rating, Nutsedge",[2]; [13],0
same,"Plant response rating, Morningglory","[3]; Rate 31 g/ha, scale 0 to 100",0
same,"Plant response rating, Morningglory",[3]; [12],0
same,"Plant response rating, Morningglory",[3]; [13],0
same,"Plant response rating, Goosegrass","[4]; Rate 31 g/ha, scale 0 to 100",0
same,"Plant response rating, Goosegrass",[4]; [12],0
same,"Plant response rating, Goosegrass",[4]; [13],0
same,"Plant response rating, Bermudagrass","[5]; Rate 31 g/ha, scale 0 to 100",0
same,"Plant response rating, Bermudagrass",[5]; [15],0
same,"Plant response rating, Bermudagrass",[5]; [12],0
same,"Plant response rating, Bermudagrass",[5]; [13],0
same,"Plant response rating, Corn","corn (Zea mays); Rate 31 g/ha, scale 0 to 100",0
same,"Plant response rating, Corn",corn (Zea mays); [12],0
same,"Plant response rating, Corn",corn (Zea mays); [13],0
same,"Plant response rating, Foxtail, Giant","[6]; Rate 31 g/ha, scale 0 to 100",0
same,"Plant response rating, Foxtail, Giant",[6]; [12],0
same,"Plant response rating, Foxtail, Giant",[6]; [13],0
same,"Plant response rating, Lambsquarters","[7]; Rate 31 g/ha, scale 0 to 100",20
same,"Plant response rating, Lambsquarters",[7]; [12],20
same,"Plant response rating, Lambsquarters",[7]; [13],50
same,"Plant response rating, Chickweed","[8]; Rate 31 g/ha, scale 0 to 100",0
same,"Plant response rating, Chickweed",[8]; [15],0
same,"Plant response rating, Chickweed",[8]; [12],0
same,"Plant response rating, Chickweed",[8]; [13],0
same,"Plant response rating, Velvetleaf","[9]; Rate 31 g/ha, scale 0 to 100",0
same,"Plant response rating, Velvetleaf",[9]; [12],0
same,"Plant response rating, Velvetleaf",[9]; [13],0
same,"Plant response rating (0 to 100), Sunflower",Sunflower [10]; Rate 250 g/ha,60
same,Rice plant response rating,rice (Oryza saliva); Rate 250 g/ha,30
same,Rice plant response rating,rice (Oryza saliva); Rate 500 g/ha,90
same,"Plant response rating, Rice",rice (Oryza saliva); Rate 62 g/ha,0
same,"Plant response rating, Rice",rice (Oryza saliva); Rate 125 g/ha,0
same,"Plant response rating, Sunflower",Sunflower [11]; Rate 31 g/ha,0
